Measurements reported in patent US20080200442A1, “Compositions and Methods for Treating, Reducing, Ameliorating, or Preventing Infections of the Ear or Upper Respiratory Tract” (priority 2007, published 2008).
In brackets after ≈: the same amount, converted by molar mass.

system: Ofloxacin-resistant Enterobacteriaceae; assay: organism not typed; format: cell-based

Compound	MIC90
NC1CCCCN(c2c(F)cc3c(=O)c(C(=O)O)cn(C4CC4)c3c2Cl)C1 (stereo not drawn) [Compound Having Formula III]	16 µg/mL
CCn1cc(C(=O)O)c(=O)c2cc(F)c(N3CCNCC3)cc21 [Norfloxacin]	128 µg/mL (≈ 401 µM)
CC1COc2c(N3CCN(C)CC3)c(F)cc3c(=O)c(C(=O)O)cn1c23 (stereo not drawn) [Ofloxacin]	64 µg/mL (≈ 177 µM)
